In ChEMBL document CHEMBL3885861, “Open TG-GATES”:

Species on record: Rattus norvegicus
Assay: Open TG-GATES - Regimen: Single
Assay type: toxicity, organism-based, Sprague-Dawley
Design: regimen Single, gender Male, age 6 weeks
Conditions: in vivo, po, 30 mg/kg, route gavage, dose level Middle; for APTT / Bas / Eos / Fbg / Hb / Ht / Lym / MCH / MCHC / MCV / Mono / Neu / PT / Plat / RBC / Ret / WBC: tissue Blood; for KIDNEY_L / KIDNEY_R / KIDNEY_TOTAL: tissue Kidney; for LIVER: tissue Liver; for A/G / ALP / ALT / AST / BUN / CRE / Ca / Cl / DBIL / GLC / IP / K / LDH / Na / PL / RALB / TBIL / TC / TG / TP / gamma-GTP: tissue Plasma

OCCOCCN1CCN(C(c2ccccc2)c2ccc(Cl)cc2)CC1 (configuration not stated) [HYDROXYZINE]
TERMINAL_BW (3 h): 193.6 g
APTT (3 h): 15.6 s
Bas (3 h): 0.2%
Eos (3 h): 0.8%
Fbg (3 h): 288.4 mg/dL
Hb (3 h): 13 g/dL
Ht (3 h): 40.6%
Lym (3 h): 75.4%
MCH (3 h): 21.5 pg
MCHC (3 h): 31.9%
MCV (3 h): 67.3 fL
Mono (3 h): 3.4%
Neu (3 h): 19.6%
PT (3 h): 15.6 s
Plat (3 h): 107 x10_4/uL
RBC (3 h): 604.4 x10_4/ul
Ret (3 h): 8.9%
WBC (3 h): 83.3 x10_2/uL
KIDNEY_L (3 h): 0.9 g
KIDNEY_R (3 h): 0.9 g
KIDNEY_TOTAL (3 h): 1.8 g
LIVER (3 h): 8.7 g
A/G (3 h): 0.8
ALP (3 h): 1908.4 IU/L
ALT (3 h): 42.4 IU/L
AST (3 h): 74.8 IU/L
BUN (3 h): 9.2 mg/dL
CRE (3 h): 0.2 mg/dL
Ca (3 h): 10.9 mg/dL
Cl (3 h): 106.2 meq/L
DBIL (3 h): 0.012 mg/dL
GLC (3 h): 173.4 mg/dL
IP (3 h): 9.1 mg/dL
K (3 h): 4.4 meq/L
LDH (3 h): 76 IU/L
Na (3 h): 142 meq/L
PL (3 h): 140 mg/dL
RALB (3 h): 2.5 g/dL
TBIL (3 h): 0.058 mg/dL
TC (3 h): 78.6 mg/dL
TG (3 h): 33.2 mg/dL
TP (3 h): 5.4 g/dL
gamma-GTP (3 h): 1 IU/L
TERMINAL_BW (6 h): 192 g
APTT (6 h): 15.5 s
Bas (6 h): 0.2%
Eos (6 h): 0.6%
Fbg (6 h): 289.4 mg/dL
Hb (6 h): 12.9 g/dL
Ht (6 h): 39.9%
Lym (6 h): 78.8%
MCH (6 h): 21.4 pg
MCHC (6 h): 32.2%
MCV (6 h): 66.4 fL
Mono (6 h): 3%
Neu (6 h): 16.8%
PT (6 h): 15.1 s
Plat (6 h): 115.9 x10_4/uL
RBC (6 h): 601.6 x10_4/ul
Ret (6 h): 8.8%
WBC (6 h): 67.5 x10_2/uL
KIDNEY_L (6 h): 0.9 g
KIDNEY_R (6 h): 0.9 g
KIDNEY_TOTAL (6 h): 1.8 g
LIVER (6 h): 8.4 g
A/G (6 h): 0.9
ALP (6 h): 1397.6 IU/L
ALT (6 h): 38.8 IU/L
AST (6 h): 73.6 IU/L
BUN (6 h): 8.4 mg/dL
CRE (6 h): 0.2 mg/dL
Ca (6 h): 10.9 mg/dL
Cl (6 h): 105.8 meq/L
DBIL (6 h): 0.01 mg/dL
GLC (6 h): 180.4 mg/dL
IP (6 h): 10.5 mg/dL
K (6 h): 4.3 meq/L
LDH (6 h): 69.2 IU/L
Na (6 h): 142.6 meq/L
PL (6 h): 141.8 mg/dL
RALB (6 h): 2.5 g/dL
TBIL (6 h): 0.064 mg/dL
TC (6 h): 83.2 mg/dL
TG (6 h): 40.6 mg/dL
TP (6 h): 5.5 g/dL
gamma-GTP (6 h): 0.8 IU/L
TERMINAL_BW (9 h): 190.8 g
APTT (9 h): 15.9 s
Bas (9 h): 0%
Eos (9 h): 0.8%
Fbg (9 h): 281.8 mg/dL
Hb (9 h): 12.9 g/dL
Ht (9 h): 40%
Lym (9 h): 79%
MCH (9 h): 21.7 pg
MCHC (9 h): 32.3%
MCV (9 h): 67.1 fL
Mono (9 h): 2.6%
Neu (9 h): 17.2%
PT (9 h): 15.4 s
Plat (9 h): 104.8 x10_4/uL
RBC (9 h): 595.6 x10_4/ul
Ret (9 h): 8.8%
WBC (9 h): 60.3 x10_2/uL
KIDNEY_L (9 h): 0.9 g
KIDNEY_R (9 h): 0.9 g
KIDNEY_TOTAL (9 h): 1.7 g
LIVER (9 h): 8.2 g
A/G (9 h): 0.9
ALP (9 h): 1266.8 IU/L
ALT (9 h): 38 IU/L
AST (9 h): 70.2 IU/L
BUN (9 h): 9 mg/dL
CRE (9 h): 0.2 mg/dL
Ca (9 h): 10.7 mg/dL
Cl (9 h): 107 meq/L
DBIL (9 h): 0.01 mg/dL
GLC (9 h): 171.6 mg/dL
IP (9 h): 10.2 mg/dL
K (9 h): 4 meq/L
LDH (9 h): 83.6 IU/L
Na (9 h): 142.8 meq/L
PL (9 h): 127.8 mg/dL
RALB (9 h): 2.5 g/dL
TBIL (9 h): 0.06 mg/dL
TC (9 h): 67.6 mg/dL
TG (9 h): 43 mg/dL
TP (9 h): 5.4 g/dL
gamma-GTP (9 h): 1 IU/L
TERMINAL_BW (24 h): 210 g
APTT (24 h): 16.7 s
Bas (24 h): 0.2%
Eos (24 h): 0.8%
Fbg (24 h): 268 mg/dL
Hb (24 h): 12.7 g/dL
Ht (24 h): 39.4%
Lym (24 h): 74.6%
MCH (24 h): 21.3 pg
MCHC (24 h): 32.3%
MCV (24 h): 65.9 fL
Mono (24 h): 3.8%
Neu (24 h): 20.4%
PT (24 h): 16.1 s
Plat (24 h): 122 x10_4/uL
RBC (24 h): 599.2 x10_4/ul
Ret (24 h): 8%
WBC (24 h): 75.2 x10_2/uL
KIDNEY_L (24 h): 0.9 g
KIDNEY_R (24 h): 0.9 g
KIDNEY_TOTAL (24 h): 1.8 g
LIVER (24 h): 10.1 g
A/G (24 h): 0.8
ALP (24 h): 1659 IU/L
ALT (24 h): 45.8 IU/L
AST (24 h): 68.6 IU/L
BUN (24 h): 14 mg/dL
CRE (24 h): 0.2 mg/dL
Ca (24 h): 11.2 mg/dL
Cl (24 h): 106.6 meq/L
DBIL (24 h): 0.018 mg/dL
GLC (24 h): 188.2 mg/dL
IP (24 h): 7.9 mg/dL
K (24 h): 4.1 meq/L
LDH (24 h): 75.2 IU/L
Na (24 h): 142.8 meq/L
PL (24 h): 153.4 mg/dL
RALB (24 h): 2.6 g/dL
TBIL (24 h): 0.054 mg/dL
TC (24 h): 79.2 mg/dL
TG (24 h): 82 mg/dL
TP (24 h): 5.6 g/dL
gamma-GTP (24 h): 1 IU/L
